Assay results as given in patent US20040185073A1, “Cosmetic compositions containing salts of malonic acid” (Unilever Home & Personal Care USA, Division of Conopco, Inc., priority 2003, published 2004).

Tested on: Porcine Skin
Assay: Porcine Skin Test (thermo-mechanical analyzer deflection, 20 gram load)
Experimental: A feature of the present invention is that malonate salts are those which impart to the composition a positive Flexibility Value of at least 1, preferably at least 1.1 relative to water in the Porcine Skin Test. This test utilizes a thermo-mechanical analyzer with a 20 gram load to a one-cm diameter disc of Porcine Skin from which the immediate deflection is recorded in mm. Water serves as a control. Skin samples are measured before and 24 hours after one, two and three treatments. These treatments consist of 150 μl of each composition being applied to the skin for five minutes, then removed without rinsing. Thereafter, drying is performed at 21° C. and less than 100% relative humidity. Data transformation consists of determining the ratio of the deflection value after three applications of the test composition to the deflection value of the water standard. The ratio is defined as the Flexibility Value.
A variety of carboxylic acid salts were evaluated to determine their response in a Porcine Skin Test. A Perkin-Elmer Thermo-Mechanical Analyzer, Model TMS-1, was operated with a 20 gram load placed to a center of a one-cm diameter disc of Porcine Skin. Deflection of the skin in mm was immediately recorded. The sample size was six pieces of skin per treatment. Water was used as a control. […] Each was measured dry before and 24 hours after one, two and three treatments. […]

Dimethylethanolammonium Malonate [Malonate Salt]
Flexibility Value (test material solution, 150 μl applied 5 minutes, ratio of deflection after three applications to deflection of water standard (water = 1.00)): 1.36 | effect on skin flexibility (in words) (test material solutions, versus water): significantly more flexible
